Experimental data from patent publication US11247965B2 (VenatoRx Pharmaceuticals, Inc., priority 2017, dated 2022).
pEC50: −log10 of the molar value. Read-outs that look alike come from different tables or passages of the source.

Columns and labels:
[1] = system: HBV replication in HepAD38 cells; test: Anti-HBV activity in HepAD38 cells, extracellular HBV DNA by QPCR; assay type: cell-based, HBV (genotype D, serotype ayw)
Outline: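 Seven-day compound exposure (30 μM down to 10 nM, half-log steps) after tetracycline withdrawal induced HBV replication in HepAD38 cells. Extracellular viral DNA measured by QPCR (copies/mL via standard curve), normalised to DMSO wells; EC50 from 4-parameter non-linear regression.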

HepG2 cells = test: In vitro cytotoxicity, MTT cell viability assay in HepG2 cells; assay type: cell-based; settings: human, 7 days
Outline: (§1)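 Read-out: MTT formazan absorbance at 492 nm, expressed as % of vehicle signal; CC50 by 4-parameter non-linear regression. Parental HepG2, 20,000 cells/well, treated 7 days with compound from 30 μM down to 1.0 nM.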

HBV = settings: Phase 1b clinical trial, 600 mg bid dosing for 29 days; cited from earlier work
[2] = In vitro cytotoxicity, MTT cell viability assay in HepG2 cells; assay type: cell-based; settings: human, Cytotoxicity CC50
Outline: as §1

[3] = read-out: Anti-HBV EC50, HepAD38 cells, extracellular HBV DNA by QPCR, 7 days of incubation
[4] = Hepatitis B virus, HePAD38, 168 h, read-out: Anti-HBV EC50, HepAD38 cells, extracellular HBV DNA by QPCR, 7 days of incubation

Row | Structure (SMILES) | pEC50 [1, 3] | CC50 (HepG2 cells) | pEC50 [1, 4] | reduction in HBV DNA (HBV) | CC50 at 7 days [2]
1 | O=C(Nc1ccc(F)c(F)c1)c1ccc(F)c(C(F)(F)C(=O)NC2CCC(O)CC2)c1 (stereo not drawn) [Example 27, 3-(1,1-difluoro-2-(((1s,4s)-4-hydroxycyclohexyl)amino)-2-oxoethyl)-N-(3,4-difluorophenyl)-4-fluorobenzamide] | > 5.30 | 5 to 30 µM |  |  | 
2 | N#Cc1cc(NC(=O)c2ccc(F)c(C(F)(F)C(=O)N3[C@@H]4CC[C@H]3C[C@@H](O)C4)c2)ccc1F [Example 178, N-(3-cyano-4-fluorophenyl)-3-(1,1-difluoro-2-((1R,3r,5S)-3-hydroxy-8-azabicyclo[3.2.1]octan-8-yl)-2-oxoethyl)-4-fluorobenzamide] |  | > 30 µM | > 5.30 |  | 
3 | Cc1cc(NC(=O)c2ccc(F)c(C(F)(F)C(=O)N3C4CCC3CC(O)(CO)C4)c2)ccc1F (single isomer, unassigned; isomer 1) [Example 274] |  | < 5 µM | > 5.30 |  | 
4 | N#Cc1cc(NC(=O)c2ccc(F)c(C(F)(F)C(=O)N3[C@@H]4CC[C@H]3C[C@@H](O)C4)c2)ccc1F [Example 192, N-(3-cyano-4-fluorophenyl)-3-(1,1-difluoro-2-((1R,3r,5S)-3-hydroxy-8-azabicyclo[3.2.1]octan-8-yl)-2-oxoethyl)-4-fluorobenzamide] | > 5.30 | 5 to 30 µM |  |  | 
5 | Cc1cc(NC(=O)c2ccc(F)c(C(F)(F)C(=O)N3C4CCC3CC(O)(CO)C4)c2)ccc1F (single isomer, unassigned; isomer 2) [Example 275] | > 5.30 | > 30 µM |  |  | 
6 | O=C(Nc1cc(F)c(F)c(F)c1)c1ccc(F)c(S(=O)(=O)N2CCC(O)CC2)c1 [NVR 3-778] |  |  |  | −1.7 log 10 | 
7 | N#Cc1cc(NC(=O)c2ccc(F)c(C(F)(F)C(=O)N3CCC(O)C(F)(F)C3)c2)ccc1F (stereo not drawn) [Example 191, N-(3-cyano-4-fluorophenyl)-3-(2-(3,3-difluoro-4-hydroxypiperidin-1-yl)-1,1-difluoro-2-oxoethyl)-4-fluorobenzamide] | > 5.30 | 5 to 30 µM |  |  | 
8 | Cc1cc(NC(=O)c2c(C)c(C(O)(C(=O)NC(C)(C)C)C(F)(F)F)c(C)n2C)ccc1F (stereo not drawn) [Example 155, 4-(3-(tert-butylamino)-1,1,1-trifluoro-2-hydroxy-3-oxopropan-2-yl)-N-(4-fluoro-3-methylphenyl)-1,3,5-trimethyl-1H-pyrrole-2-carboxamide] | > 5.30 | 5 to 30 µM |  |  | 
9 | Cc1cc(NC(=O)c2ccc(F)c(C(F)(F)C(=O)N3CCC(F)(F)C3)c2)ccc1F [Example 73, 3-(2-(3,3-difluoropyrrolidin-1-yl)-1,1-difluoro-2-oxoethyl)-4-fluoro-N-(4-fluoro-3-methylphenyl)benzamide] |  |  | 4.52 to 5.30 |  | 5 to 30 µM
10 | COc1cc(NC(=O)c2ccc(Cl)c(C(F)(F)C(=O)N3CCC(O)CC3)c2)cc(F)c1F [Example 61, 4-chloro-3-(1,1-difluoro-2-(4-hydroxypiperidin-1-yl)-2-oxoethyl)-N-(3,4-difluoro-5-methoxyphenyl)benzamide] |  |  | 4.52 to 5.30 |  | > 30 µM
11 | CCC(C)NC(=O)C(F)(F)c1cc(C(=O)Nc2ccc(F)c(F)c2)ccc1F (stereo not drawn) [Example 1, 3-(2-(sec-butylamino)-1,1-difluoro-2-oxoethyl)-N-(3,4-difluorophenyl)-4-fluorobenzamide] |  |  | > 5.30 |  | 5 to 30 µM
12 | Cc1cc(NC(=O)c2ccc(F)c(C(F)(F)C(=O)NCc3nccs3)c2)ccc1F [Example 68, 3-(1,1-difluoro-2-oxo-2-((thiazol-2-ylmethyl)amino)ethyl)-4-fluoro-N-(4-fluoro-3-methylphenyl)benzamide] |  |  | > 5.30 |  | 5 to 30 µM
13 | Cc1cc(NC(=O)c2ccc(F)c(C(F)(F)C(=O)N3CCc4cn[nH]c4C3)c2)ccc1F [Example 76, 3-(1,1-difluoro-2-oxo-2-(1,4,5,7-tetrahydro-6H-pyrazolo[3,4-c]pyridin-6-yl)ethyl)-4-fluoro-N-(4-fluoro-3-methylphenyl)benzamide] |  |  | > 5.30 |  | 5 to 30 µM
14 | Cc1cc(NC(=O)c2ccc(F)c(C(F)(F)C(=O)NC34CCC(O)(CC3)C4)c2)ccc1F [Example 254, 3-(1,1-difluoro-2-((4-hydroxybicyclo[2.2.1]heptan-1-yl)amino)-2-oxoethyl)-4-fluoro-N-(4-fluoro-3-methylphenyl)benzamide] |  |  | 4.52 to 5.30 |  | > 30 µM
15 | Cn1cc(C(=O)Nc2ccc(F)c(Cl)c2)cc1C(F)(F)C(=O)NCCO [Example 138, N-(3-chloro-4-fluorophenyl)-5-(1,1-difluoro-2-((2-hydroxyethyl)amino)-2-oxoethyl)-1-methyl-1H-pyrrole-3-carboxamide] |  |  | 4.52 to 5.30 |  | > 30 µM
16 | Cc1cc(NC(=O)c2ccn(C)c2C(F)(F)C(=O)NC(C)(C)C)ccc1F [Example 101, 2-(2-(tert-butylamino)-1,1-difluoro-2-oxoethyl)-N-(4-fluoro-3-methylphenyl)-1-methyl-1H-pyrrole-3-carboxamide] |  |  | > 5.30 |  | > 30 µM
17 | Cc1cc(NC(=O)c2ccc(F)c(C(F)(F)C(=O)N3CCC(O)CC3(C)C)c2)ccc1F (stereo not drawn) [Example 71, 3-(1,1-difluoro-2-(4-hydroxy-2,2-dimethylpiperidin-1-yl)-2-oxoethyl)-4-fluoro-N-(4-fluoro-3-methylphenyl)benzamide] |  |  | 4.52 to 5.30 |  | > 30 µM
18 | Cc1cc(NC(=O)c2ccc(F)c(C(F)(F)C(=O)N3CCn4c(nnc4C(F)(F)F)C3)c2)ccc1F [Example 341, 3-(1,1-difluoro-2-oxo-2-(3-(trifluoromethyl)-5,6-dihydro-[1,2,4]triazolo[4,3-a]pyrazin-7(8H)-yl)ethyl)-4-fluoro-N-(4-fluoro-3-methylphenyl)benzamide] |  |  | 4.52 to 5.30 |  | 5 to 30 µM
19 | O=C(Nc1ccc(F)c(Br)c1)c1ccc(Cl)c(C(F)(F)C(=O)N2CCC(O)CC2)c1 [Example 43, N-(3-bromo-4-fluorophenyl)-4-chloro-3-(1,1-difluoro-2-(4-hydroxypiperidin-1-yl)-2-oxoethyl)benzamide] |  |  | > 5.30 |  | 5 to 30 µM
20 | Cc1cc(NC(=O)c2ccc(F)c(C(F)(F)C(=O)N3[C@H](C)CN(S(=O)(=O)C4CC4)C[C@@H]3C)c2)ccc1F [Example 292, 3-(2-((2S,6R)-4-(cyclopropylsulfonyl)-2,6-dimethylpiperazin-1-yl)-1,1-difluoro-2-oxoethyl)-4-fluoro-N-(4-fluoro-3-methylphenyl)benzamide] |  |  | > 5.30 |  | 5 to 30 µM
